# PubChem BioAssay (NCI)
#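 GI50 marks 50% less growth. TGI: total growth inhibition.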
# What was measured:
# Test in all cases: NCI-60 cell line screen, 384-well format
# 786-0 renal = system: 786-0 renal
# A498 renal = system: A498 renal
# A549 NSCLC = system: A549 NSCLC
# ACHN renal = system: ACHN renal
# BT-549 breast = system: BT-549 breast
# CAKI-1 renal = system: CAKI-1 renal
# CCRF-CEM leukemia = system: CCRF-CEM leukemia
# COLO 205 colon = system: COLO 205 colon
# DU-145 prostate = system: DU-145 prostate
# EKVX NSCLC = system: EKVX NSCLC
# HCC-2998 colon = system: HCC-2998 colon
# HCT-116 colon = system: HCT-116 colon
# HCT-15 colon = system: HCT-15 colon
# HL-60(TB) leukemia = system: HL-60(TB) leukemia
# HOP-62 NSCLC = system: HOP-62 NSCLC
# HOP-92 NSCLC = system: HOP-92 NSCLC
# HS 578T breast = system: HS 578T breast
# HT29 colon = system: HT29 colon
# IGROV1 ovarian = system: IGROV1 ovarian
# K-562 leukemia = system: K-562 leukemia
# KM12 colon = system: KM12 colon
# LOX IMVI melanoma = system: LOX IMVI melanoma
# M14 melanoma = system: M14 melanoma
# MALME-3M melanoma = system: MALME-3M melanoma
# MCF7 breast = system: MCF7 breast
# MDA-MB-231 breast = system: MDA-MB-231 breast
# MDA-MB-435 melanoma = system: MDA-MB-435 melanoma
# MDA-MB-468 breast = system: MDA-MB-468 breast
# MOLT-4 leukemia = system: MOLT-4 leukemia
# NCI-H226 lung = system: NCI-H226 lung
# NCI-H23 lung = system: NCI-H23 lung
# NCI-H322M lung = system: NCI-H322M lung
# NCI-H460 NSCLC = system: NCI-H460 NSCLC
# NCI-H522 lung = system: NCI-H522 lung
# NCI/ADR-RES ovarian = system: NCI/ADR-RES ovarian
# OVCAR-3 ovarian = system: OVCAR-3 ovarian
# OVCAR-4 ovarian = system: OVCAR-4 ovarian
# OVCAR-5 ovarian = system: OVCAR-5 ovarian
# PC-3 prostate = system: PC-3 prostate
# RPMI-8226 leukemia = system: RPMI-8226 leukemia
# RXF 393 renal = system: RXF 393 renal
# SF-268 CNS = system: SF-268 CNS
# SF-295 CNS = system: SF-295 CNS
# SF-539 CNS = system: SF-539 CNS
# SK-MEL-2 melanoma = system: SK-MEL-2 melanoma
# SK-MEL-28 melanoma = system: SK-MEL-28 melanoma
# SK-MEL-5 melanoma = system: SK-MEL-5 melanoma
# SK-OV-3 ovarian = system: SK-OV-3 ovarian
# SN12C renal = system: SN12C renal
# SNB-19 CNS = system: SNB-19 CNS
# SNB-75 CNS = system: SNB-75 CNS
# SR leukemia = system: SR leukemia
# SW-620 colon = system: SW-620 colon
# T-47D breast = system: T-47D breast
# TK-10 renal = system: TK-10 renal
# U251 glioblastoma = system: U251 glioblastoma
# UACC-257 melanoma = system: UACC-257 melanoma
# UACC-62 melanoma = system: UACC-62 melanoma
structure (smiles),measurement,setting,value
CC(C)[C@H](O)C(=O)N[C@@H](C)C(=O)N[C@@H]1C(=O)N(C)CCc2ccccc21,GI50,786-0 renal,> 100 µM
same,TGI,786-0 renal,> 100 µM
same,GI50,A498 renal,> 100 µM
same,TGI,A498 renal,> 100 µM
same,GI50,A549 NSCLC,> 100 µM
same,TGI,A549 NSCLC,> 100 µM
same,GI50,ACHN renal,> 100 µM
same,TGI,ACHN renal,> 100 µM
same,GI50,BT-549 breast,> 100 µM
same,TGI,BT-549 breast,> 100 µM
same,GI50,CAKI-1 renal,> 100 µM
same,TGI,CAKI-1 renal,> 100 µM
same,GI50,CCRF-CEM leukemia,> 100 µM
same,TGI,CCRF-CEM leukemia,> 100 µM
same,GI50,COLO 205 colon,> 100 µM
same,TGI,COLO 205 colon,> 100 µM
same,GI50,DU-145 prostate,> 100 µM
same,TGI,DU-145 prostate,> 100 µM
same,GI50,EKVX NSCLC,> 100 µM
same,TGI,EKVX NSCLC,> 100 µM
same,GI50,HCC-2998 colon,> 100 µM
same,TGI,HCC-2998 colon,> 100 µM
same,GI50,HCT-116 colon,> 100 µM
same,TGI,HCT-116 colon,> 100 µM
same,GI50,HCT-15 colon,> 100 µM
same,TGI,HCT-15 colon,> 100 µM
same,GI50,HL-60(TB) leukemia,> 100 µM
same,TGI,HL-60(TB) leukemia,> 100 µM
same,GI50,HOP-62 NSCLC,> 100 µM
same,TGI,HOP-62 NSCLC,> 100 µM
same,GI50,HOP-92 NSCLC,> 100 µM
same,TGI,HOP-92 NSCLC,> 100 µM
same,GI50,HS 578T breast,> 100 µM
same,TGI,HS 578T breast,> 100 µM
same,GI50,HT29 colon,> 100 µM
same,TGI,HT29 colon,> 100 µM
same,GI50,IGROV1 ovarian,> 100 µM
same,TGI,IGROV1 ovarian,> 100 µM
same,GI50,K-562 leukemia,> 100 µM
same,TGI,K-562 leukemia,> 100 µM
same,GI50,KM12 colon,> 100 µM
same,TGI,KM12 colon,> 100 µM
same,GI50,LOX IMVI melanoma,> 100 µM
same,TGI,LOX IMVI melanoma,> 100 µM
same,GI50,M14 melanoma,> 100 µM
same,TGI,M14 melanoma,> 100 µM
same,GI50,MALME-3M melanoma,> 100 µM
same,TGI,MALME-3M melanoma,> 100 µM
same,GI50,MCF7 breast,> 100 µM
same,TGI,MCF7 breast,> 100 µM
same,GI50,MDA-MB-231 breast,> 100 µM
same,TGI,MDA-MB-231 breast,> 100 µM
same,GI50,MDA-MB-435 melanoma,> 100 µM
same,TGI,MDA-MB-435 melanoma,> 100 µM
same,GI50,MDA-MB-468 breast,> 100 µM
same,TGI,MDA-MB-468 breast,> 100 µM
same,GI50,MOLT-4 leukemia,> 100 µM
same,TGI,MOLT-4 leukemia,> 100 µM
same,GI50,NCI-H226 lung,> 100 µM
same,TGI,NCI-H226 lung,> 100 µM
same,GI50,NCI-H23 lung,> 100 µM
same,TGI,NCI-H23 lung,> 100 µM
same,GI50,NCI-H322M lung,> 100 µM
same,TGI,NCI-H322M lung,> 100 µM
same,GI50,NCI-H460 NSCLC,> 100 µM
same,TGI,NCI-H460 NSCLC,> 100 µM
same,GI50,NCI-H522 lung,> 100 µM
same,TGI,NCI-H522 lung,> 100 µM
same,GI50,NCI/ADR-RES ovarian,> 100 µM
same,TGI,NCI/ADR-RES ovarian,> 100 µM
same,GI50,OVCAR-3 ovarian,> 100 µM
same,TGI,OVCAR-3 ovarian,> 100 µM
same,GI50,OVCAR-4 ovarian,> 100 µM
same,TGI,OVCAR-4 ovarian,> 100 µM
same,GI50,OVCAR-5 ovarian,> 100 µM
same,TGI,OVCAR-5 ovarian,> 100 µM
same,GI50,PC-3 prostate,> 100 µM
same,TGI,PC-3 prostate,> 100 µM
same,GI50,RPMI-8226 leukemia,> 100 µM
same,TGI,RPMI-8226 leukemia,> 100 µM
same,GI50,RXF 393 renal,> 100 µM
same,TGI,RXF 393 renal,> 100 µM
same,GI50,SF-268 CNS,> 100 µM
same,TGI,SF-268 CNS,> 100 µM
same,GI50,SF-295 CNS,> 100 µM
same,TGI,SF-295 CNS,> 100 µM
same,GI50,SF-539 CNS,> 100 µM
same,TGI,SF-539 CNS,> 100 µM
same,GI50,SK-MEL-2 melanoma,> 100 µM
same,TGI,SK-MEL-2 melanoma,> 100 µM
same,GI50,SK-MEL-28 melanoma,> 100 µM
same,TGI,SK-MEL-28 melanoma,> 100 µM
same,GI50,SK-MEL-5 melanoma,> 100 µM
same,TGI,SK-MEL-5 melanoma,> 100 µM
same,GI50,SK-OV-3 ovarian,> 100 µM
same,TGI,SK-OV-3 ovarian,> 100 µM
same,GI50,SN12C renal,> 100 µM
same,TGI,SN12C renal,> 100 µM
same,GI50,SNB-19 CNS,> 100 µM
same,TGI,SNB-19 CNS,> 100 µM
same,GI50,SNB-75 CNS,> 100 µM
same,TGI,SNB-75 CNS,> 100 µM
same,GI50,SR leukemia,> 100 µM
same,TGI,SR leukemia,> 100 µM
same,GI50,SW-620 colon,> 100 µM
same,TGI,SW-620 colon,> 100 µM
same,GI50,T-47D breast,> 100 µM
same,TGI,T-47D breast,> 100 µM
same,GI50,TK-10 renal,> 100 µM
same,TGI,TK-10 renal,> 100 µM
same,GI50,U251 glioblastoma,> 100 µM
same,TGI,U251 glioblastoma,> 100 µM
same,GI50,UACC-257 melanoma,> 100 µM
same,TGI,UACC-257 melanoma,> 100 µM
same,GI50,UACC-62 melanoma,> 100 µM
same,TGI,UACC-62 melanoma,> 100 µM
